Test results taken from patent US20050240034A1, “Artemisinin-based peroxide compounds as broad spectrum anti-infective agents” (priority 2002, published 2005).
Read-outs that look alike come from different tables or passages of the source.

How the values were obtained:
[1] = system: Leishmania donovani promastigotes expressing firefly luciferase; test: antileishmanial luciferase assay on transgenic promastigotes; type: cell-based
Description: Antileishmanial activity of the compounds was tested on a transgenic cell line of Leishmania donovani promastigotes expressing firefly luciferase.^29a In a 96 well microplate assay, compounds with appropriate dilution were added to the leishmania promastigotes culture (2×10^6 cell/mL). The plates were incubated at 26° C. for 72 hours and growth of leishmania promastigotes was determined by luciferase assay with Steady Glo® reagent (Promega, USA). Pentamidine and Amphotericin B were used as standard antileishmanial agents. The analogues were simultaneously tested for cytotoxicity on VERO cells (monkey kidney fibroblast) by Neutral Red assay.^29b IC50 values for the compounds were computed from the growth inhibition curve.

[2] = system: P. falciparum D6 (Sierra Leone); test: antimalarial parasite LDH (pLDH) assay, D6; type: cell-based, Plasmodium falciparum; details: pLDH assay, Table 5; read-out: P. falciparum (D6 Clone) IC50
Description: (§1) The Thad Cochran National Center for Natural Products Research (University of Mississippi) in vitro antimalarial screen was conducted using an enzyme assay for detection of P. falciparum (see procedure below). This assay is based on the observation that lactate dehydrogenase (LDH) of P. falciparum is distinguishable from host LDH activity. P. falciparum LDH rapidly uses 3-acetyl pyridine nicotinamide adenine dinucleotide (APAD) as a coenzyme in the biotransformation of […].^38 The same process is carried out in human red blood cells at a very slow rate.
(§2) The “Antimalarial parasite LDH assay” is currently being conducted according the following procedure: prepare a suspension of RBC with a 2% parasitemia and 2% hematocrit in malaria complete medium. Dispense 200 μl aliquots of this suspension into each well of a 96 well microtiter plate. Add 10 μl volumes of the drugs to be tested in duplicate to the appropriate wells. Place the plates into humidified chamber and flush the cultures with a gas mixture consisting of 90% N2, 5% O2, and 5% CO2. Transfer the chamber containing the plates to an incubator, and incubate for 48 hours at 37° C. After 48 hours add 100 μl aliquots of the Malstat™ reagent to each well of a new 96-well microtiter plate Resuspend the cultures from the assay plate by mixing each well up and down several times. Remove 20 μl from each well of the resuspend culture and add to the plate containing the Malstat™ reagent. Incubate the plates at room temperature for 30 minutes. After 30 minutes, add to each well 20 μl of the 1:1 mixture of the NBT/PES solution (2 mg/ml and 0.1 mg/ml, respectively). Incubate the plates in the dark for 1 hour. Add 100 μl of 5% acetic acid solution to stop the reaction. The plate is then read at an endpoint of approximately 650 nm. The dose response curves are generated using Microsoft Excel.
(§3) Antimalarial activity of the analogues was determined in vitro on chloroquine sensitive (D)6, Sierra Leone) and resistant (W2, IndoChina) strains of Plasmodium falciparum. The 96 well microplate assay is based on evaluation of the effect of the compounds on the growth of asynchronous cultures of P. falciparum, determined by the assay of parasite lactate dehydrogenase (pLDH) activity.^28 The appropriate dilutions of the compounds were prepared in DMSO or RPMI-1640 medium and added to the cultures of P. falciparum (2% hematocrit, 2% parasitemia) set up in clear flat bottomed 96 well plates. The plates were placed into the humidified chamber and flushed with a gas mixture of 90% N2, 5% CO2 & 5% O2. The cultures were incubated at 37° C. for 48 hours. Growth of the parasite in each well was determined by pLDH assay using Malstat® reagent. The medium and RBC controls were also set-up in each plate. The standard antimalarial agents, chloroquine and artemisinin, were used as the positive controls while DMSO was tested as the negative control.

[3] = system: P. falciparum W2 (IndoChina); test: antimalarial parasite LDH (pLDH) assay, W2; type: cell-based, Plasmodium falciparum; details: pLDH assay, Table 5; read-out: P. falciparum (W2 Clone) IC50
Description: as §1, §2
as §3, with “plate.” for “plate. The standard antimalarial agents, chloroquine and artemisinin, were used as the positive controls while DMSO was tested as the negative control.”

P. berghei N = test: in vivo Peter's 4-day antimalarial test in mice, P. berghei N
Description: (§4) The parasitemia is determined on the day following the last treatment—day 4 to determine qualitatively the presence and degree of activity at the screening dose.

P. yoelli ssp. NS = test: in vivo 4-day antimalarial test in mice, P. yoelli ssp. NS
Description: as §4

[4] = Table 1 (artemisinin analogues), NA = not active up to 125 μg/ml, read-out: Antileishmanial activity IC50
[5] = Table 3 (continues Table 1), read-out: Antileishmanial activity IC50
[6] = Table 4, NA = not active up to 125 μg/ml, read-out: IC50
[7] = mice, oral, 4-day test, unit not given
[8] = mice, subcutaneous, 4-day test, unit not given

## CC1CCC2C(CCCc3ccc(Cl)cc3)C(=O)OC3OC4(C)CCC1C32OO4 (stereo not shown) [Compound 72]
[1]; [4]
  IC50: 11.9 µM

## CCCC1C(=O)OC2OC3(C)CCC4C(C)CCC1C24OO3 (stereo not shown) [Compound 63]
[1]; [4]
  IC50: 16.8 µM

## CC1CCC2C(CCCCc3ccccc3)C(=O)OC3OC4(C)CCC1C32OO4 (stereo not shown) [Compound 70]
[1]; [4]
  IC50: 7.5 µM

## CC1CCC2C(CCCc3cccc(Cl)c3)COC3OC4(C)CCC1C32OO4 (stereo not shown) [Compound 96]
[1]; [5]
  IC50: 3.7 µM

## CC1CCC2C(CCC#N)C(=O)OC3OC4(C)CCC1C32OO4 (stereo not shown) [Compound 52]
[2]
  IC50: 0.0149 µM
[3]
  IC50: 0.0149 µM
[1]; [4]
  IC50: 38.9 µM

## CC1CCC2C(CCCc3ccc(Cl)c(Cl)c3)COC3OC4(C)CCC1C32OO4 (stereo not shown) [Compound 97]
[1]; [5]
  IC50: 2.3 µM

## CC1CCC2C(CCCc3ccc(N(C)C)cc3)COC3OC4(C)CCC1C32OO4 (stereo not shown) [Compound 43a]
[2]
  IC50: 0.0165 µM
[3]
  IC50: 0.0143 µM
[1]; [5]
  IC50: 36 µM

## CC1CCC2CC(=O)N(Cc3ccccc3)C3OC4(C)CCC1C23OO4 (stereo not shown) [Compound 108]
[1]; [6]
  IC50: 56 µM

## COc1ccc(CCCC2COC3OC4(C)CCC5C(C)CCC2C35OO4)cc1 (stereo not shown) [Compound 99]
[1]; [5]
  IC50: 17.4 µM

## CC1CCC2C(CCCc3ccccc3)C(=O)OC3OC4(C)CCC1C32OO4 (stereo not shown) [Compound 27]
[2]
  IC50: 0.0104 µM
[3]
  IC50: 0.0034 µM
[1]; [4]
  IC50: 45.3 µM

## CC1CCC2C(CCCc3ccc(Cl)cc3)COC3OC4(C)CCC1C32OO4 (stereo not shown) [Compound 95]
[1]; [5]
  IC50: 4.9 µM

## CC1CCC2C(C)COC3OC4(C)CCC1C32OO4 (stereo not shown) [Compound 94]
[1]; [5]
  IC50: 46.6 µM

## CC1CCC2C(CCCc3ccc(C(F)(F)F)cc3)COC3OC4(C)CCC1C32OO4 (stereo not shown) [Compound 98]
[1]; [5]
  IC50: 1.8 µM

## (+)-Octahydro-3,6α-dimethyl-3,12-epoxy-9β-(3′-(trifluoromethyl)propyl)-12H-pyrano[4,3j]-1,2-benzodioxepin-10(3H)-one [Compound 28]
[2]
  IC50: 0.0439 µM
[3]
  IC50: 0.0508 µM
[1]; [4]
  IC50: 1.4 µM

## CCCCN1C(=O)CC2CCC(C)C3CCC4(C)OOC23C1O4 (stereo not shown) [Compound 105]
[1]; [6]
  IC50: 44.5 µM

## CC1CCC2C(CCCc3cc(F)cc(F)c3)C(=O)OC3OC4(C)CCC1C32OO4 (stereo not shown) [Compound 74]
[1]; [4]
  IC50: 49.7 µM

## COc1ccc(CCCC2C(=O)OC3OC4(C)CCC5C(C)CCC2C35OO4)cc1 (stereo not shown) [Compound 73]
[1]; [4]
  IC50: 12 µM

## CC1CCC2C(CCCc3ccc(O)cc3)C(=O)OC3OC4(C)CCC1C32OO4 (single isomer, unassigned; (+)) [Compound 33]
[2]
  IC50: 0.0079 µM
[3]
  IC50: 0.0047 µM
[1]; [4]
  IC50: 44.7 µM

## N=C(N)c1ccc(OCCCCCOc2ccc(C(=N)N)cc2)cc1 [Pentamidine, reference compound]
[1]; Leishmania donovani, read-out: Antileishmanial activity IC50
  IC50: 1.35 µM

## CC1CCC2C(C)(C)C(=O)OC3OC4(C)CCC1C32OO4 (stereo not shown) [Compound 62]
[1]; [4]
  IC50: 101 µM

## CCCCC1C(=O)OC2OC3(C)CCC4C(C)CCC1C24OO3 (stereo not shown) [Compound 65]
[1]; [4]
  IC50: 12.3 µM

## CC1CCC2CC(=O)N(CCc3ccccc3)C3OC4(C)CCC1C23OO4 (stereo not shown) [Compound 110]
[1]; [6]
  IC50: 32.3 µM

## CC1CCC2C(CCCc3cccc(F)c3)C(=O)OC3OC4(C)CCC1C32OO4 (stereo not shown) [Compound 71]
[1]; [4]
  IC50: 3.7 µM

## CC1CCC2CC(=O)N(Cc3ccc(Cl)cc3)C3OC4(C)CCC1C23OO4 (stereo not shown) [Compound 109]
[1]; [6]
  IC50: 25.5 µM

## (+)-Octahydro3,6α-dimethyl-3,12-epoxy-9β-(3′-(3,5-difluorophenyl)propyl)-12H-pyrano[4,3j)-1,2-benzodioxepin-10(3H)-one [Compound 34]
[2]
  IC50: 0.0188 µM
[3]
  IC50: 0.016 µM
[1]; [4]
  IC50: 14.4 µM

## (+)-Octabydro-3,6α-dimethyl-3,12-epoxy-9β-(3′-(m-fluorophenyl)propyl)-12H-pyrano[4,3j]-1,2-benzodioxepin-10(3H)-one [Compound 30]
[2]
  IC50: 0.0301 µM
[3]
  IC50: 0.02 µM
[1]; [4]
  IC50: 53.8 µM

## CC1CCC2CC(=O)N(CC(=O)OC(C)(C)C)C3OC4(C)CCC1C23OO4 (stereo not shown) [Compound 107]
[1]; [6]
  IC50: 27.5 µM

## CC1CCC2C(CCCc3cc(C(F)(F)F)cc(C(F)(F)F)c3)COC3OC4(C)CCC1C32OO4 (stereo not shown) [Compound 101]
[1]; [5]
  IC50: 0.3 µM

## CC1CCC2C(CCCc3ccccc3)C(=O)OC3OC4(C)CCC1C32OO4 (stereo not shown) [Compound 26]
[2]
  IC50: 0.0047 µM
[3]
  IC50: 0.0013 µM
[1]; [4]
  IC50: 11.6 µM

## C[C@@H]1CC[C@@H]([C@@H](C)CO)[C@@]23C=C[C@@](C)(CC[C@@H]12)OO3 [Compound 112]
[1]; Leishmania donovani
  IC50: 131 µM

## C[C@@H]1CC[C@H]2[C@@H](C)C(=O)O[C@@H]3O[C@@]4(C)CC[C@@H]1[C@]32OO4 [Artemisinin, artemisinin]
[2]
  IC50: 0.017 µM
[1]; [4]
  IC50: 124 µM

## CC1CCC2C(CCCc3cc(F)cc(F)c3)COC3OC4(C)CCC1C32OO4 (stereo not shown) [Compound 100]
[1]; [5]
  IC50: 11 µM

## C[C@@H]1[C@H](O)[C@@H](C)/C=C/C=C/C=C/C=C/C=C/C=C/C=C/[C@H](O[C@@H]2O[C@H](C)[C@@H](O)[C@H](N)[C@@H]2O)C[C@@H]2O[C@](O)(C[C@@H](O)C[C@@H](O)[C@H](O)CC[C@@H](O)C[C@@H](O)CC(=O)O[C@H]1C)C[C@H](O)[C@H]2C(=O)O [Amphotericin B, reference compound]
[1]; [5]
  IC50: 0.01 µM

## C=CCC1C(=O)OC2OC3(C)CCC4C(C)CCC1C24OO3 (stereo not shown) [Compound 64]
[1]; [4]
  IC50: 17.8 µM

## C[C@H]1[C@H](OC(=O)CCC(=O)[O-])O[C@@H]2O[C@@]3(C)CC[C@H]4[C@H](C)CC[C@@H]1[C@@]24OO3.[Na+] [Sodium artesunate, sodium artesunate, reference compound]
P. berghei N; [7]
  P. berghei N P.O. ED50: 2.4
  P. berghei N P.O. ED90: 13.0
P. berghei N; [8]
  P. berghei N S.C. ED50: 1.5
  P. berghei N S.C. ED90: 6.3
P. berghei N; strain N, route PO
  % Suppression: 77.2%
  ED50: <10 mg/kg × 4
  ED90: >10 mg/kg × 4
P. yoelli ssp. NS; strain NS, route PO
  % Suppression: 56.5%
  ED50: <10 mg/kg × 4
  ED90: >10 mg/kg × 4
P. yoelli ssp. NS; subcutaneous, unit inferred
  P. yoelli ssp. NS (S.C.) ED50: 5.3 mg/kg
  P. yoelli ssp. NS (S.C.) ED90: 23.3 mg/kg

## CC1CCC2CC(=O)OC3OC4(C)CCC1C23OO4 (stereo not shown) [Compound 60]
[1]; [4]
  IC50: 242 µM
